From BindingDB's records for doi:10.1074/jbc.M109.039511 (University of Florida, 2010) come the findings set out here.

Counter-ions that a name gives are not always drawn.

The target in the assay is T1, Acid phosphatase (Francisella tularensis subsp. tularensis (strain SCHU S4 / Schu 4), UniProt Q5NIC0).
T1 sequence (Q5NIC0 whole entry): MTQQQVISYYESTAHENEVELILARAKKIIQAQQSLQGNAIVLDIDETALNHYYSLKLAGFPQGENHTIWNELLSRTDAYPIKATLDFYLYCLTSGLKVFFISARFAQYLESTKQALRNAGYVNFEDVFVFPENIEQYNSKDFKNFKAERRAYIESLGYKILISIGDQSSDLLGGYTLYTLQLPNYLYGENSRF
The assay is described as follows: Inhibitor Screening Assay. The protocol: The inhibitor screening assays were performed in 96-well format with 1152 small molecules found in the Prestwick chemical library (Prestwick Chemical, France).

Take `CC1(C)OC[C@@H]([C@H]2OC(=O)C(=O)C2O)O1` (stereo partly drawn) [(+)-5,6-O-Isopropylidene-L-ascorbic acid]: the Ki – broadly, the equilibrium dissociation constant of an inhibitor or competing ligand from its target – came out at 3.27 µM.
The compound `COc1ccc(CC2c3cc(OC)c(OC)cc3CC[N+]2(C)CCC(=O)OCCCCCOC(=O)CC[N+]2(C)CCc3cc(OC)c(OC)cc3C2Cc2ccc(OC)c(OC)c2)cc1OC` (stereo not drawn) displayed an inhibition constant (Ki) of 342 µM.
In the case of `CCCCCCCCCCCCCCCC[N+](C)(C)CCN(Cc1ccc(OC)cc1)c1ncccn1` [SMR001233380] it was 0.59 µM; in that of `OC[C@H](O)c1oc(O)c(O)c1O` [ascorbic acid], 380 µM; in that of `O=c1c(O)c(-c2ccc(O)cc2)oc2cc(O)cc(O)c12`, 190 µM.
Compound `O=C1OC(C(O)CO)=C(O)C1OP(=O)(O)O` [2-phospho-L-ascorbic acid] came in with a Ki of 0.32 µM.
On to `O=c1c(O)c(-c2cc(O)c(O)c(O)c2)oc2cc(O)cc(O)c12`, for which the Ki was determined as 154 µM.
In the case of `CCN(CC)CCNC(=O)c1ccc(N)cc1` [4-amino-N-[2-(diethylamino)ethyl]benzamide;hydrochloride] it was 14.8 µM.
